In PMC10379611 (International Journal of Molecular Sciences, 2023):

Experiments:
CNT1 = target: T1, CNT1 (Homo sapiens, UniProt O00337); assay: CNT1-mediated uridine uptake in CNT1-MDCKII cells; type: cell-based; settings: for IC50: MDCKII cells, 1 µM uridine
T1 construct: expressed in transfected cells; host or cells: MDCKII (lentiviral transduction)
T1 sequence (O00337 1-649): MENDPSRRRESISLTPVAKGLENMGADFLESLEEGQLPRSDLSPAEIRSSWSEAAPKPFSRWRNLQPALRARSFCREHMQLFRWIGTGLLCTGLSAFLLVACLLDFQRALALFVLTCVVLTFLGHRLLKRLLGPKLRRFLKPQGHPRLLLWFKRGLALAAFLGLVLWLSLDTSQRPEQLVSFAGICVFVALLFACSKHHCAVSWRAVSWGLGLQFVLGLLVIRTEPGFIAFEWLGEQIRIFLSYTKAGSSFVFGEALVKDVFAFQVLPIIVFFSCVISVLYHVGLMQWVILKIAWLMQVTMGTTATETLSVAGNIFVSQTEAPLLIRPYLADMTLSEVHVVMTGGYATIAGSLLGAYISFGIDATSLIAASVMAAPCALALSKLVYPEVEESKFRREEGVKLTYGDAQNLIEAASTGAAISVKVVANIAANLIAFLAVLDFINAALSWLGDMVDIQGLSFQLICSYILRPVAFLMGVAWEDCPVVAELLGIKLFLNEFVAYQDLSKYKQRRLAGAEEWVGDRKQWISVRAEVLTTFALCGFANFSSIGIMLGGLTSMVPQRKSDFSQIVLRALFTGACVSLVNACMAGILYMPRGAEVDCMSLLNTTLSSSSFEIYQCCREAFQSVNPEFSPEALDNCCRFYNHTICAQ
Procedure: ENT and CNT transporter interactions were investigated in transporter-overexpressing cell lines. Madin-Darby Canine Kidney II (MDCKII) cell lines overexpressing the human uptake transporters CNT1, CNT2, ENT1, and ENT2 were generated via lentiviral transduction. Cell cultures were maintained in Dulbecco’s modified Eagle’s medium (DMEM) and 4500 mg/L of glucose supplemented with GlutaMax^TM, 10% v/v fetal bovine serum (FBS), 100 units/mL penicillin, and 100 µg/mL streptomycin (all from Gibco/ThermoFisher, Waltham, MA, USA) at 37 °C in 5% CO2 at 95% humidity. For uptake inhibition assays, transporter-expressing cells and mock-transduced control cells were seeded on 96-well tissue culture plates at a density of 1 × 10^5 cells/well. Twenty-four hours after seeding, cells were rinsed twice with Krebs-Henseleit buffer (KH buffer, pH 7.4) and then preincubated for 30 min with solutions containing serial dilutions of the test compounds in KH at room temperature. Following preincubation, the solutions were removed, the cells were rinsed twice with KH buffer, and coincubation was started with a suitable radiolabeled substrate and the diluted series of test compounds. Assay conditions were as follows: 1 µM uridine (traced with 0.1 µCi ^3H-Uridine/well), 30 s (CNT1), and 1 min (CNT2, ENT1) incubations; 1 µM adenosine (traced with 0.1 µCi ^3H-Adenosine/well) and 2 min (ENT2) incubation. All experiments were conducted at room temperature. […] Uptake was terminated by rinsing twice with ice-cold KH buffer, and cells were lysed with 0.1 M NaOH. To determine the amounts of accumulated radiolabeled substrates, cell lysates mixed with a liquid scintillation cocktail were measured with a MicroBeta2 microplate counter (PerkinElmer, Singapore).
(§1) Transporter-specific accumulation of the probe substrate was calculated using the following formula: ACCSpec = ACCTRP − ACCMock, where ACCTRP is the accumulation of the probe in transporter-expressing cells and ACCMock is the accumulation of the probe in control cells. Relative transporter-specific accumulation values were calculated as percentages of the control value (with vehicle only).

ENT1 = target: T2, ENT1 (Homo sapiens, UniProt Q99808); assay: ENT1-mediated uridine uptake in ENT1-MDCKII cells; type: cell-based
T2 construct: expressed in transfected cells; host or cells: MDCKII (lentiviral transduction)
T2 sequence (Q99808 1-456): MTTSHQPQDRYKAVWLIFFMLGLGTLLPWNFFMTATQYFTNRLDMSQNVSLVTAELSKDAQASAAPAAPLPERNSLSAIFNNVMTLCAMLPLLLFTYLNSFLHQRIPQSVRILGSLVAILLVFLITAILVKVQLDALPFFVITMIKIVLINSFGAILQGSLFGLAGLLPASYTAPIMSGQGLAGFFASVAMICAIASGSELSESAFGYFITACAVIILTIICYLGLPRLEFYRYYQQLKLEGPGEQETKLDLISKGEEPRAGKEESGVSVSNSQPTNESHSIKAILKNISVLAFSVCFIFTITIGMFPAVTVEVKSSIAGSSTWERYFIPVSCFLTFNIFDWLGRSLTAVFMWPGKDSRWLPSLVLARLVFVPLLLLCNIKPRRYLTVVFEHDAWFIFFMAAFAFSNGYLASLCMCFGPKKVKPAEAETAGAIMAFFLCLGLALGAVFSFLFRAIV
Procedure: ENT and CNT transporter interactions were investigated in transporter-overexpressing cell lines. Madin-Darby Canine Kidney II (MDCKII) cell lines overexpressing the human uptake transporters CNT1, CNT2, ENT1, and ENT2 were generated via lentiviral transduction. Cell cultures were maintained in Dulbecco’s modified Eagle’s medium (DMEM) and 4500 mg/L of glucose supplemented with GlutaMax^TM, 10% v/v fetal bovine serum (FBS), 100 units/mL penicillin, and 100 µg/mL streptomycin (all from Gibco/ThermoFisher, Waltham, MA, USA) at 37 °C in 5% CO2 at 95% humidity. For uptake inhibition assays, transporter-expressing cells and mock-transduced control cells were seeded on 96-well tissue culture plates at a density of 1 × 10^5 cells/well. […] To determine the amounts of accumulated radiolabeled substrates, cell lysates mixed with a liquid scintillation cocktail were measured with a MicroBeta2 microplate counter (PerkinElmer, Singapore).
as §1

| Compound | IC50 (CNT1) | inhibition of CNT1-mediated uridine uptake (CNT1; at 200 μM) | ENT1-mediated uridine transport, inhibited to % of the full activity (ENT1; at 200 μM) | inhibition at 200 µM (CNT1; read-out: inhibition of CNT1-mediated uridine uptake) | ENT1 uridine transport remaining, % of full activity at 200 µM (ENT1; read-out: ENT1-mediated uridine transport, inhibited to % of the full activity) |
| --- | --- | --- | --- | --- | --- |
| O=c1nc(NO)ccn1[C@@H]1O[C@H](CO)[C@@H](O)[C@H]1O [EIDD-1931] | 18.8 µM | approximately 80% | about 50% |  |  |
| CC(C)C(=O)OC[C@H]1O[C@@H](n2ccc(NO)nc2=O)[C@H](O)[C@@H]1O [EIDD-2801, Molnupiravir] | 84.9 µM |  |  | ~80% | ~50% |
